Consider 5 molecules from patent US11254685B2, “Abuse-resistant long-acting release opioid prodrugs” (priority 2017, dated 2022).

The AUC(0-inf) is the area under the concentration-time curve extrapolated to infinity. As usually defined, the AUC(0-t) is exposure summed from dosing to a finite time, without extrapolation to infinity. What is called MRT inf is a mean duration of stay, worked out from the concentration-time curve. The half-life is how long it takes for the measured level to halve. What is called Cmax is the highest concentration seen after dosing. One may read the solubility as how much of the substance goes into solution per volume.

The nature of data set [1]: Pharmacokinetic study in rats, single intramuscular injection, plasma prodrug and parent drug by LC-MS/MS. In kind it is in vivo, Sprague-Dawley rats. The procedure: General Procure: The formulations of opioid ester prodrugs are prepared to provide 180 mg/ml suspension by adding 1.8 g of prodrug to a 50 ml glass vial. To the solids is added […] of injection vehicle (2-3% sodium CMC, 0.2% polysorbate 20 in phosphate buffered saline (PBS) pH 7). The resulting mixture is sonicated for 10 min and left standing. The contents of the vial is then shaken until a uniform, clump-free suspension is obtained prior to dosing.
Twelve male Male Sprague-Dawley rats with a body weight approximately 250 g are used in the study. A single intramuscular injection of ester prodrug (180 mg) is administered to rats. Blood samples is collected at 0 (pretreatment) 0.5, 1, 2, 4, 8, 12 and 24 days after administration. Blood is collected with commercially available plastic tubes containing a clot activator. Within 10 min of collection, blood is centrifugation at 2.500 g for 10 min. Plasma is separated and frozen at −18° C. until analyzed by LC-MS/MS. Both prodrug and its corresponding parent drug are analyzed. The pharmacokinetic parameters (AUC, Tmax, Cmax, T1/2, etc) of the test articles are compared to compare the performance of prodrugs to their parent drugs.
Pharmacokinetic Studies for Compounds 2, 3, and 7. Pharmacokinetic studies were conducted for three compounds (Compounds 2, 3 and 7) in rats. The formulations were prepared either in sesame oil (Compound 2, 100 mg eq/mL) or aqueous suspension (Compounds 3 and 7, 100 mg eq/mL and 60 mg eq/mL, respectively). The dosage “eq” refers to the equivalent dosing amount of the respective parent drug, e.g., oxymorphone or hydromorphone in this Example. The sesame oil formulation contains 1.2% benzyl alcohol. The suspension formulation was prepared in PBS buffer containing 2% CMC and 0.2% Tween 80. The particle sizes of the testing compounds in suspension were kept under 10 micron. Both oil and suspension formulations were sterilized by electronic beam before administered to Sprague-Dawley rats.
Twelve Male Sprague-Dawley rats with body weight of approximately 250 gram were randomly divided into three groups. The rats were housed in cages for at least 5 days prior to entering the study and had free access to standard pellets and water during the period. The formulations (0.05 mL) were administered to rats by intra muscular injection via hind leg. Blood (0.10 mL) was sampled by individual tail vein puncture at the following time points: 0.5, 2, 8 hours, 1, 3, 6, 13, 27 days post-dose. Blood was collected into K2EDTA coated tubes and centrifuged at 4° C. at 2000 g in for 10 min to obtain plasma. Plasma (0.05 mL) was immediately quenched with 100 uL methanol/acetonitrile (1:1) containing 50 ng/mL ISTD (Terfenadine and Buspirone). The mixture was vortexed for 1 min and centrifuged at 4000 rpm for 15 min. Supernatant was diluted 2 fold with 0.1% FA in water for injection. Both prodrug and the drug were analyzed using LC-MS/MS on AB Sciex API 5500. The pharmacokinetic parameters were calculated and reported as following.

For data set [2] the following is noted: monomeric fatty acid, aqueous; Vorum et al. 1992; cited from earlier work.
Setting [3] is: analyte prodrug Compound 7 in plasma, Compound 7 IM 102.5 mg/kg, aqueous suspension, N = 4, mean.
The mark [4] stands for this setting: male, Sprague-Dawley, rat, analyte prodrug Compound 7 in plasma, Compound 7 IM 102.5 mg/kg, aqueous suspension, N = 4, mean.
Where [5] appears, read: analyte prodrug Compound 3 in plasma, Compound 3 IM 119.14 mg/kg, aqueous suspension, N = 4, mean.
Setting [6] is: oxymorphone / Compound 3, Compound 3 IM 119.14 mg/kg, N = 4, mean.
The mark [7] stands for this setting: analyte prodrug Compound 2 in plasma, Compound 2 IM 29.7 mg/kg, sesame oil formulation, Rat #14.
[8] abbreviates: analyte prodrug Compound 2 in plasma, Compound 2 IM 118.11 mg/kg, sesame oil formulation, Rat #1-3, mean.
The mark [9] stands for this setting: oxymorphone / Compound 2, Compound 2 IM 29.7 mg/kg, Rat #14.
Setting [10] is: oxymorphone / Compound 2, Compound 2 IM 118.11 mg/kg, Rat #1-3, mean.

Where two headings read alike, the source gives them in different places.

For `CCCCCCCCCCCCCCCCCCCC(=O)Oc1ccc2c3c1O[C@H]1C(=O)CC[C@H]4[C@@H](C2)N(C)CC[C@]314` [Compound 7, Hydromorphone eicosanate], in data set [1] (setting [3]), the “AUC Extr” value came out at 4.36% and the AUCInf/D came to 27.8 kg·ng·h/mL/mg. In data set [1] (setting [4]), the AUC(0-inf) stood at 2850 ng·h/mL, the AUC(0-t) amounted to 2760 ng·h/mL, the MRT inf came to 138 h and the half-life is 64.4 h. Besides, the Cmax in data set [1] (male, Sprague-Dawley, rat, analyte prodrug Compound 7 in plasma, Compound 7 IM 102.5 mg/kg, aqueous suspension, N = 4, mean, read-out: Cmax) came out at 45.6 ng/mL. Also, the tmax in data set [1] (male, Sprague-Dawley, rat, analyte prodrug Compound 7 in plasma, Compound 7 IM 102.5 mg/kg, aqueous suspension, N = 4, mean, read-out: tmax) was determined as 6.13 h.

With `CCCCCCCCCCCC(=O)O` [laurate], the solubility entry in data set [2] is given as “greater than 500 μM”.

For the molecule `CCCCCCCCCCCCCC(=O)O` [myristate], in data set [2], the solubility was 20 to 30 µM.

Regarding Oxymorphone eicosanate [Compound 3], the “AUC Extr” value in data set [1] (analyte parent drug oxymorphone in plasma, Compound 3 IM 119.14 mg/kg, aqueous suspension, N = 4, mean) was 63.7%. For the same molecule, in data set [1] (setting [5]), the “AUC Extr” value stood at 29.9%, the AUCInf is 2355 ng·h/mL, the AUCInf/D was found to be 19.8 kg·ng·h/mL/mg and the AUClast is 1711 ng·h/mL. In addition, in data set [1] (setting [5]), the Cmax is listed as 4.79 ng/mL, the MRTInf is 484 h, the t1/2 came to 263 h and the tmax is 212 h. For the same molecule, in data set [1] (setting [6]), the “AUClast Ratio (Parent/Pro)” value came to 4.44 and the “Cmax Ratio (Parent/Pro)” value is given as 3.22.

In the case of Oxymorphone hexadecanate [Compound 2], the “AUC Extr” value in data set [1] (analyte parent drug oxymorphone in plasma, Compound 2 IM 29.7 mg/kg, sesame oil formulation, Rat #14) is 0.99%. Further, in data set [1] (analyte parent drug oxymorphone in plasma, Compound 2 IM 118.11 mg/kg, sesame oil formulation, Rat #1-3, mean), the “AUC Extr” value amounted to 5.71%. Moreover, in data set [1] (setting [7]), the “AUC Extr” value is given as 42.6%, the AUCInf was determined as 30.3 ng·h/mL, the AUCInf/D was 1.02 kg·ng·h/mL/mg and the AUClast stood at 17.4 ng·h/mL. Further, in data set [1] (setting [7]), the Cmax was found to be 0.54 ng/mL, the MRTInf stood at 108 h, the t1/2 was determined as 76 h and the tmax stood at 2.00 h. Moreover, in data set [1] (setting [8]), the “AUC Extr” value is on record as 39.8%, the AUCInf amounted to 101 ng·h/mL, the AUCInf/D is 0.857 kg·ng·h/mL/mg and the AUClast came to 51.3 ng·h/mL. Moreover, in data set [1] (setting [8]), the Cmax is given as 1.62 ng/mL, the MRTInf stood at 156 h, the t1/2 turned out to be 130 h and the tmax was determined as 3.50 h. In addition, in data set [1] (setting [9]), the “AUClast Ratio (Parent/Pro)” value was found to be 151 and the “Cmax Ratio (Parent/Pro)” value was 21. Besides, in data set [1] (setting [10]), the “AUClast Ratio (Parent/Pro)” value stood at 161 and the “Cmax Ratio (Parent/Pro)” value is recorded as 63.7.
